Data taken from ChEMBL document CHEMBL5113401, “Novel 1,3,4-oxadiazole chalcogen analogues: Synthesis and cytotoxic activity” (Eur J Med Chem, 2022).
Calls of active or inactive are those of the source. The rule behind the calls is not given here.

Legend:
HeLa [1] = experiment: Induction of cell cycle arrest in human HeLa cells assessed as accumulation of cells at G1 phase at 1 uM incubated for 12 hrs by FACS flow cytometry analysis (reference value: 69.94 %); format: functional
HeLa [2] = experiment: Induction of cell cycle arrest in human HeLa cells assessed as accumulation of cells at G1 phase at 1 uM incubated for 6 hrs by FACS flow cytometry analysis (reference value: 69.94 +/- 1.71 %); format: functional
PC-3 [3] = experiment: Inhibition of colony formation in human PC-3 cells at IC50 incubated for 2 weeks with culture medium replacement for every 3 days by crystal violet staining based analysis; format: functional, cell-based
HeLa [4] = experiment: Induction of cell cycle arrest in human HeLa cells assessed as accumulation of cells at G2/M phase at 1 uM incubated for 6 hrs by FACS flow cytometry analysis (reference value: 12.66 +/- 0.88 %); format: functional
HeLa [5] = experiment: Induction of apoptosis in human HeLa cells assessed as early apoptotic cells at 1 uM incubated for 24 hrs by Annexin V-FITC/7-AAD staining based flow cytometric analysis (reference value: 2.7 +/- 0.424 %); format: functional
NB1 = experiment: Cytotoxicity against human NB1 cells immortalized with hTERT plasmid assessed as reduction in cell viability at 1 to 2 uM incubated for 48 hrs by XTT assay; format: toxicity, cell-based; details: nb1, 48 h, dose 1-2 µM
Tubulin (Homo sapiens) [6] = biological target: T1, Tubulin (Homo sapiens) (UniProt P68371+Q9H4B7+P0DPH7+P68366+Q13509+Q71U36+P04350+Q3ZCM7+P07437+P68363+Q9BQE3+Q6PEY2+Q13885+Q9BVA1+Q9BUF5); experiment: Inhibition of tubulin polymerization in human HeLa cells assessed as irregular cell morphology at 0.5 uM incubated for 6 hrs by DAPI staining based fluorescence microscopic analysis
HeLa [7] = experiment: Induction of apoptosis in human HeLa cells assessed as dead cells at 1 uM incubated for 24 hrs by Annexin V-FITC/7-AAD staining based flow cytometric analysis (reference value: 0.6 +/- 0.707 %); format: functional
PC-3 [8] = experiment: Induction of cell cycle arrest in human PC-3 cells assessed as accumulation of cells at G2/M phase at 1 uM incubated for 6 hrs by FACS flow cytometry analysis (reference value: 20.74 +/- 1.93 %); format: functional
MCF7 = experiment: Antiproliferative activity against human MCF7 cells assessed as inhibition of cell growth incubated for 48 hrs by XTT assay; format: functional, cell-based; details: MCF7, 48 h
HeLa [9] = experiment: Induction of cell cycle arrest in human HeLa cells assessed as accumulation of cells at S phase at 1 uM incubated for 6 hrs by FACS flow cytometry analysis (reference value: 17.41 +/- 0.96 %); format: functional
Tubulin (Homo sapiens) [10] = biological target: T1, Tubulin (Homo sapiens); experiment: Inhibition of tubulin polymerization in human HeLa cells assessed as aberrations in mitotic spindle and nucleus at 0.5 uM incubated for 6 hrs by DAPI staining based fluorescence microscopic analysis; format: cell-based
HeLa [11] = experiment: Induction of apoptosis in human HeLa cells assessed as viable cells at 1 uM incubated for 24 hrs by Annexin V-FITC/7-AAD staining based flow cytometric analysis (reference value: 85.6 +/- 1.061%); format: functional; details: read-out: Activity
HeLa [12] = experiment: Induction of cell cycle arrest in human HeLa cells assessed as accumulation of cells at G2/M phase at 1 uM incubated for 18 hrs by FACS flow cytometry analysis (reference value: 12.66 +/- 0.92 %); format: functional
HeLa [13] = experiment: Induction of cell cycle arrest in human HeLa cells assessed as accumulation of cells at S phase at 1 uM incubated for 18 hrs by FACS flow cytometry analysis (reference value: 17.41 +/- 1.16 %); format: functional
PC-3 [14] = experiment: Induction of cell cycle arrest in human PC-3 cells assessed as accumulation of cells at G1 phase at 1 uM incubated for 12 hrs by FACS flow cytometry analysis (reference value: 44.2 +/- 2.01 %); format: functional
HeLa [15] = experiment: Induction of apoptosis in human HeLa cells assessed as late apoptotic cells at 1 uM incubated for 24 hrs by Annexin V-FITC/7-AAD staining based flow cytometric analysis (reference value: 11.1 +/- 0.778 %); format: functional
PC-3 [16] = experiment: Induction of cell cycle arrest in human PC-3 cells assessed as accumulation of cells at G2/M phase at 1 uM incubated for 18 hrs by FACS flow cytometry analysis (reference value: 20.74 %); format: functional
HeLa [17] = experiment: Induction of cell cycle arrest in human HeLa cells assessed as accumulation of cells at G2/M phase at 1 uM incubated for 12 hrs by FACS flow cytometry analysis (reference value: 12.66 %); format: functional
PC-3 [18] = experiment: Induction of cell cycle arrest in human PC-3 cells assessed as accumulation of cells at S phase at 1 uM incubated for 12 hrs by FACS flow cytometry analysis (reference value: 35.06 +/- 1.36 %); format: functional
HFF-1 = experiment: Cytotoxicity against HFF-1 cells assessed as reduction in cell viability at 1 to 2 uM incubated for 48 hrs by XTT assay; format: toxicity, cell-based; details: human, hff-1, 48 h, dose 1-2 µM
PC-3 [19] = experiment: Induction of cell cycle arrest in human PC-3 cells assessed as accumulation of cells at G1 phase at 1 uM incubated for 18 hrs by FACS flow cytometry analysis (reference value: 44.2 %); format: functional
Tubulin (Homo sapiens) [20] = biological target: T1, Tubulin (Homo sapiens); experiment: Inhibition of tubulin polymerization in human HeLa cells assessed as abnormal microtubule network at 0.5 uM incubated for 6 hrs by DAPI staining based fluorescence microscopic analysis; format: cell-based
PC-3 [21] = experiment: Induction of cell cycle arrest in human PC-3 cells assessed as accumulation of cells at G2/M phase at 1 uM incubated for 12 hrs by FACS flow cytometry analysis (reference value: 20.74 +/- 1.95 %); format: functional
PC-3 [22] = experiment: Antiproliferative activity against human PC-3 cells assessed as inhibition of cell growth incubated for 48 hrs by XTT assay; format: functional, cell-based; details: PC-3, 48 h
HeLa [23] = experiment: Inhibition of colony formation in human HeLa cells at IC50 incubated for 2 weeks with culture medium replacement for every 3 days by crystal violet staining based analysis; format: functional, cell-based
PC-3 [24] = experiment: Induction of cell cycle arrest in human PC-3 cells assessed as accumulation of cells at S phase at 1 uM incubated for 18 hrs by FACS flow cytometry analysis (reference value: 35.06 %); format: functional
HeLa [25] = experiment: Induction of cell cycle arrest in human HeLa cells assessed as accumulation of cells at S phase at 1 uM incubated for 12 hrs by FACS flow cytometry analysis (reference value: 17.41 %); format: functional
PC-3 [26] = experiment: Induction of cell cycle arrest in human PC-3 cells assessed as accumulation of cells at S phase at 1 uM incubated for 6 hrs by FACS flow cytometry analysis (reference value: 35.06 +/- 1.85 %); format: functional
HeLa [27] = experiment: Antiproliferative activity against human HeLa cells assessed as inhibition of cell growth incubated for 48 hrs by XTT assay; format: functional, cell-based
PC-3 [28] = experiment: Induction of cell cycle arrest in human PC-3 cells assessed as accumulation of cells at G1 phase at 1 uM incubated for 6 hrs by FACS flow cytometry analysis (reference value: 44.2 +/- 2.21 %); format: functional
HeLa [29] = experiment: Induction of cell cycle arrest in human HeLa cells assessed as accumulation of cells at G1 phase at 1 uM incubated for 18 hrs by FACS flow cytometry analysis (reference value: 69.94 +/- 1.25 %); format: functional

SMILES: Cc1[nH]c2c(c1-c1nnc(-c3ccccc3)o1)Cc1ccccc1-2
- Activity (HeLa [1]): 3.54%
- Activity (HeLa [2]): 16.81%
- inhibition (PC-3 [3]): Active
- Activity (HeLa [4]): 20.86%
- Activity (HeLa [5]): 2.9%
- Activity (NB1): Non-Toxic
- inhibition (Tubulin (Homo sapiens) [6]): Active
- Activity (HeLa [7]): 6.4%
- Activity (PC-3 [8]): 38.61%
- IC50 (MCF7): 1.72 µM
- Activity (HeLa [9]): 63.32%
- inhibition (Tubulin (Homo sapiens) [10]): Active
- viability at 1 µM (HeLa [11]): 62.2%
- Activity (HeLa [12]): 90.18%
- Activity (HeLa [13]): 8.43%
- Activity (PC-3 [14]): 0%
- Activity (HeLa [15]): 28.5%
- Activity (PC-3 [16]): 92.97%
- Activity (HeLa [17]): 41.41%
- Activity (PC-3 [18]): 18.48%
- Activity (HFF-1): Non-Toxic
- Activity (PC-3 [19]): 1.71%
- inhibition (Tubulin (Homo sapiens) [20]): Active
- Activity (PC-3 [21]): 81.52%
- IC50 (PC-3 [22]): 1.66 µM
- inhibition (HeLa [23]): Active
- Activity (PC-3 [24]): 5.86%
- Activity (HeLa [25]): 55.05%
- Activity (PC-3 [26]): 53.05%
- IC50 (HeLa [27]): 0.068 µM
- Activity (PC-3 [28]): 8.34%
- Activity (HeLa [29]): 1.48%
